The target in one assay is T1, Carbonic anhydrase (Pseudomonas aeruginosa (strain ATCC 15692 / PAO1 / 1C / PRS 101 / LMG12228), UniProt Q9HVB9).
T1 sequence (Q9HVB9 whole entry): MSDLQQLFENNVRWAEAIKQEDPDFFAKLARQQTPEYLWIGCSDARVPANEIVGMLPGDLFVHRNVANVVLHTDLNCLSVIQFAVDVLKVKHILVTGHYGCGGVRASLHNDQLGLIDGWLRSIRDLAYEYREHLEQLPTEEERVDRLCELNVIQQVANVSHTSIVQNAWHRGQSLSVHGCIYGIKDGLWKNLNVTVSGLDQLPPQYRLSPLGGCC
Kind of assay: biochemical. The format is cell-based, BL21-DE3.

Assay [1] concerns Pseudomonas aeruginosa. Kind of assay: Induction of growth delay of Pseudomonas aeruginosa PAO1 assessed as growth delay time. The format is functional.
The subject of assay [2] is Pseudomonas aeruginosa. Kind of assay: Induction of growth defect in Pseudomonas aeruginosa PAO1 up to 1 mM. The format is functional, organism-based.
The subject of assay [3] is Pseudomonas aeruginosa. As to the kind of experiment: Growth inhibition of Pseudomonas aeruginosa PAO1. The format is functional, organism-based.

Structures are written as SMILES. Calls of active or inactive are those of the source. No cut-off for these calls is given here.

Description for Carbonic anhydrase: Inhibition of Pseudomonas aeruginosa PAO1 type-2 beta-carbonic anhydrase psCA3 expressed in Escherichia coli Tuner BL21 (DE3) cells pre-incubated for 15 mins at pH 8.3 and 293K by CO2 hydration reaction based colorimetric stopped-flow method

On to `[Br-].[Na+]` [SODIUM BROMIDE], for which the Ki (as a rule, the dissociation constant of the complex between target and ligand, obtained from inhibition or displacement) on Carbonic anhydrase is more than 100000 µM.

The compound `N#C[SeH]` [SODIUM SELENOCYANATE] gave a Ki on Carbonic anhydrase of 680 µM. On to `[O-][Cl+3]([O-])([O-])O` [SODIUM PERCHLORATE], for which, on Carbonic anhydrase, the inhibitory constant (Ki) is more than 100000 µM. Compound `[F-].[Na+]` [SODIUM FLUORIDE] showed an inhibition constant Ki at Carbonic anhydrase of more than 100000 µM. Compound `O=S(=O)([O-])[O-].[Na+].[Na+]` [SODIUM SULFATE ANHYDROUS] returned a Ki on Carbonic anhydrase of more than 100000 µM.

Regarding `Nc1cccc(S(N)(=O)=O)c1`, the affinity on Carbonic anhydrase, expressed as Ki, was 0.032 µM. `[I-].[Na+]` [SODIUM IODIDE] returned a Ki at Carbonic anhydrase of more than 100000 µM.

Regarding `O=S([O-])O.[Na+]` [SODIUM BISULFITE], the Ki at Carbonic anhydrase stood at 7000 µM. Still for that read-out and setting: as for `[Cl-].[Na+]` [SODIUM CHLORIDE], the figure is more than 100000 µM.

At Carbonic anhydrase, `NS(N)(=O)=O` [SULFAMIDE] registered a Ki of 8 µM. The Time in the assay on Pseudomonas aeruginosa [1] is 1 h. For the same compound, the result with Pseudomonas aeruginosa [2] was Active. For the same compound, the “growth inhibition (GI)” value in the assay with Pseudomonas aeruginosa [3] was “inactive”. For `S` [SODIUM HYDROSULFIDE], the Ki on Carbonic anhydrase was 620 µM. Turning to `S=C(S)S` [SODIUM CARBONOTRITHIOATE], at Carbonic anhydrase, the affinity, expressed as Ki, was 840 µM. For the compound `NS(=O)(=O)O` [SULFAMATE], on Carbonic anhydrase, the affinity corresponds to a Ki of 38 µM. In the case of `O=C([O-])O.[Na+]` [SODIUM BICARBONATE], the affinity at Carbonic anhydrase corresponds to a Ki of 3200 µM. This Ki lies about 84-fold higher than the previous one. On the same count and under the same terms, under `CCN(CC)C(=S)S` [DITIOCARB SODIUM] stands 330 µM; under `O=[Te](=O)(O)O` [SODIUM TELLURATE], 7900 µM; under `O=[N+]([O-])[O-].[Na+]` [SODIUM NITRATE], 14200 µM. Regarding `F[B-](F)(F)F.[Na+]` [SODIUM TETRAFLUOROBORATE], the Ki at Carbonic anhydrase was more than 100000 µM. In turn, `O=[Se](=O)(O)O` [SODIUM SELENATE] yielded an inhibitory constant (Ki) on Carbonic anhydrase of 23500 µM. Consider `OB(O)c1ccccc1` [PHENYLBORONIC ACID], for which, at Carbonic anhydrase, the Ki amounted to 8 µM.

On to `O=BOB(O)OB(O)OB=O` [SODIUM TETRABORATE], for which, at Carbonic anhydrase, the affinity corresponds to a Ki of 9100 µM. On the same count and under the same terms, under `O=S(=O)(O)ONOS(=O)(=O)O` [SODIUM IMINODISULFATE] stands 4700 µM; under `O=S(=O)(O)OOS(=O)(=O)O` [SODIUM PERSULFATE], 720 µM. Still for that read-out and setting: as for `O=NO` [SODIUM NITRITE], the figure is 940 µM; as for `[N-]=[N+]=[N-]` [SODIUM AZIDE], 770 µM; as for `N#CO` [SODIUM CYANATE], 650 µM. On the same count and under the same terms, under `N#C[S-].[Na+]` [THIOCYANATE SODIUM] stands 610 µM.

For the origin of these results see ChEMBL document CHEMBL3596145, “Structure and inhibition studies of a type II beta-carbonic anhydrase psCA3 from Pseudomonas aeruginosa” (Bioorg Med Chem, 2015).
